Source: PMC7062757 (2020)

Key:
[1] = test system: Mango II (RNA, aptamer) GGCACGUACGAAGGAGAGGAGAGGAAGAGGAGAGUACGUGC; test: fluorescence titration, Hill fit; details: 140 mM KCl, 1 mM MgCl2; 10 mM sodium phosphate, pH 7.2, 22 °C; 40 nM RNA; apparent; per site
[2] = test system: M2 x3 array (5 nt) (Mango II x3, M2x3) (RNA, aptamer) GGCACGUACGAAGGAGAGGAGAGGAAGAGGAGAGUACGUGCUUUUUGGACAUGCCGAAGGAGAGGAGAGGAAGAGGAGAGGCAUGUCCUUUUUGGGUGCAUCGAAGGAGAGGAGAGGAAGAGGAGAGAUGCACCC; test: fluorescence titration, Hill fit; details: 140 mM KCl, 1 mM MgCl2; 10 mM sodium phosphate, pH 7.2, 22 °C; 40 nM RNA; apparent; per site

Kd,app [1]: 30 ± 4 nM | Kd,app [2]: 80 ± 6 nM
SMILES: CN1C=CC(=Cc2sc3ccccc3[n+]2CC(=O)NCCOCCOCCOCCNC(=O)CCCC[C@@H]2SC[C@@H]3NC(=O)N[C@@H]32)c2ccccc21
